Values after ≈ are worked out from the molar mass of the structure shown. Where two headings read alike, the source gives them in different places.
What was measured:
[1] = Study 2 Part A: multiple-dose (14 days) pharmacokinetics; assay type: in vivo, human; conditions: human, plasma; for AUC(0-t): read-out: AUC0-24h; for Tmax: median; for concentration at 14 day: read-out: Cavg; for half-life: po, half-life calculated by accumulation ratio, read-out: Effective t1/2 (converted)
Experimental: The 2-part multiple-dose study, Study 2, determined the safety and tolerability of repeated daily doses of Compound 1 and investigated the effects on biomarkers of relevance for the treatment of alcohol dependence.
PK were also evaluated in the multiple-dose, dose-escalation study, Study 2. In Part A of the study, subjects were divided into 3 cohorts and received 50, 150, or 200 mg Compound 1 or placebo for 14 consecutive days (at least 6 subjects received Compound 1 and 2 subjects received placebo in each cohort). […] All dosing occurred in the fed state. An assessment of diurnal cortisol levels, plus when under conditions of glucose clamp, were also carried out both prior to and during the dosing period.
Consistent with the single-dose study (Study 1), concentrations appeared to decline in a bi-exponential manner, characterized by a rapid decrease within the first 24 hours. […] The Tmax appeared to be consistent across doses. Overall half-lives, weight normalized CL/F and V/F were consistent for 150 and 200 mg. However, the values for these latter 2 parameters were almost doubled at the 50-mg dose level. Variability (CV%) for apparent clearance and volume of distribution were large and not reduced with weight-normalization.
Table 8 presents the results of the dose proportionality assessment for the AUC0-24 and Cmax over the tested dose range.

[2] = Solubility in different aqueous media; assay type: physicochemical; conditions: for solubility at 24 h: thermodynamic from solid
[3] = oral, 50 mg, 50 mg daily, Day 14, geometric mean
[4] = oral, 50 mg, Day 1, geometric mean
[5] = oral, 150 mg, 150 mg daily, Day 14, geometric mean
[6] = oral, 150 mg, Day 1, geometric mean
[7] = oral, 200 mg, 200 mg daily, Day 14, geometric mean
[8] = oral, 200 mg, Day 1, geometric mean
[9] = oral, 50 mg daily, Day 14, geometric mean
[10] = oral, 150 mg daily, Day 14, geometric mean
[11] = oral, 200 mg daily, Day 14, geometric mean

Cmax [1, 3]: 50.3 ng/mL | AUC(0-t) [1, 3]: 273 ng·h/mL | Vd/F at 14 days ([1]; oral, 50 mg, 50 mg daily, Day 14, geometric mean, read-out: Vss/F): 12900 L | Tmax ([1]; oral, 50 mg, 50 mg daily, Day 14): 5 h | Vd/F at 14 days ([1]; oral, 50 mg, 50 mg daily, Day 14, weight normalized, read-out: WT-norm Vss/F): 204 L/kg | Cmax [1, 4]: 22.7 ng/mL | AUC(0-t) [1, 4]: 97.6 ng·h/mL | Tmax ([1]; oral, 50 mg, Day 1): 4.52 h | Cmax [1, 5]: 222 ng/mL | AUC(0-t) [1, 5]: 1480 ng·h/mL | Vd/F at 14 days ([1]; oral, 150 mg, 150 mg daily, Day 14, geometric mean, read-out: Vss/F): 6170 L | Vd/F at 14 days ([1]; oral, 150 mg, 150 mg daily, Day 14, geometric mean, read-out: Vz/F): 17600 L | Tmax ([1]; oral, 150 mg, 150 mg daily, Day 14): 5 h | Vd/F at 14 days ([1]; oral, 150 mg, 150 mg daily, Day 14, weight normalized, read-out: WT-norm Vss/F): 86.5 L/kg | Cmax [1, 6]: 127 ng/mL | AUC(0-t) [1, 6]: 590 ng·h/mL | Tmax ([1]; oral, 150 mg, Day 1): 5 h | Cmax [1, 7]: 314 ng/mL | AUC(0-t) [1, 7]: 2040 ng·h/mL | Vd/F at 14 days ([1]; oral, 200 mg, 200 mg daily, Day 14, geometric mean, read-out: Vss/F): 5080 L | Vd/F at 14 days ([1]; oral, 200 mg, 200 mg daily, Day 14, geometric mean, read-out: Vz/F): 16300 L | Tmax ([1]; oral, 200 mg, 200 mg daily, Day 14): 5 h | Vd/F at 14 days ([1]; oral, 200 mg, 200 mg daily, Day 14, weight normalized, read-out: WT-norm Vss/F): 77.4 L/kg | Cmax [1, 8]: 143 ng/mL | AUC(0-t) [1, 8]: 559 ng·h/mL | Tmax ([1]; oral, 200 mg, Day 1): 5 h | AUC(0-inf) [1, 9]: 980 ng·h/mL | concentration at 14 day [1, 9]: 11.4 ng/mL | AUC(0-inf) [1, 10]: 4680 ng·h/mL | concentration at 14 day [1, 10]: 61.7 ng/mL | AUC(0-inf) [1, 11]: 5660 ng·h/mL | concentration at 14 day [1, 11]: 85 ng/mL | half-life at 2 weeks ([1]; oral, following multiple daily dosing for 2 weeks): > 100 h | half-life ([1]; 50 mg daily, Day 14): 37.7 h | half-life ([1]; 150 mg daily, Day 14): 32.7 h | half-life ([1]; 200 mg daily, Day 14): 52 h | Description (solubility) ([2]; 0.001N HCl, equilibrium pH 3.36): Insoluble | Description (solubility) ([2]; 0.01N HCl, equilibrium pH 2.06): Insoluble | Description (solubility) ([2]; 0.1N HCl, equilibrium pH 1.06): insoluble | Description (solubility) ([2]; 0.1N NaOH, equilibrium pH 11.65): Insoluble | Description (solubility) ([2]; FaSSIF, equilibrium pH 5.16): insoluble | Description (solubility) ([2]; FaSSIF, equilibrium pH 6.73): Insoluble | Description (solubility) ([2]; SGF, equilibrium pH 2.25): Insoluble | Description (solubility) ([2]; Water, equilibrium pH 7.78): insoluble | solubility at 24 h ([2]; aqueous buffer, 0.001N HCl, equilibrium pH 3.36, 24 hours at room temperature): 0.3 µg/mL (≈ 0.714 µM) | solubility at 24 h ([2]; aqueous buffer, 0.1N NaOH, equilibrium pH 11.65, 24 hours at room temperature): 0.2 µg/mL (≈ 0.476 µM) | Description (solubility) ([2]; pH 4.5 Acetate (USP), equilibrium pH 4.65): Insoluble | solubility at 24 h ([2]; pH 4.5 acetate buffer (USP), aqueous buffer, pH 4.5 Acetate (USP), equilibrium pH 4.65, 24 hours at room temperature): 0.5 µg/mL (≈ 1.19 µM) | Description (solubility) ([2]; pH 6.0 Phosphate (USP), equilibrium pH 6.08): Insoluble | solubility at 24 h ([2]; pH 6.0 phosphate buffer (USP), aqueous buffer, pH 6.0 Phosphate (USP), equilibrium pH 6.08, 24 hours at room temperature): 0.2 µg/mL (≈ 0.476 µM) | Description (solubility) ([2]; pH 7.5 Phosphate (USP), equilibrium pH 7.57): Insoluble | solubility at 24 h ([2]; pH 7.5 phosphate buffer (USP), aqueous buffer, pH 7.5 Phosphate (USP), equilibrium pH 7.57, 24 hours at room temperature): 0.6 µg/mL (≈ 1.43 µM) | solubility at 24 h ([2]; simulated gastric fluid, 0.01N HCl, equilibrium pH 2.06, 24 hours at room temperature): 0.4 µg/mL (≈ 0.952 µM) | solubility at 24 h ([2]; simulated gastric fluid, 0.1N HCl, equilibrium pH 1.06, 24 hours at room temperature): 1.8 µg/mL (≈ 4.29 µM) | solubility at 24 h ([2]; simulated gastric fluid, SGF, equilibrium pH 2.25, 24 hours at room temperature): 20.4 µg/mL (≈ 48.6 µM) | solubility at 24 h ([2]; FaSSIF, equilibrium pH 5.16, 24 hours at room temperature): 10.4 µg/mL (≈ 24.8 µM) | solubility at 24 h ([2]; FaSSIF, equilibrium pH 6.73, 24 hours at room temperature): 3.6 µg/mL (≈ 8.57 µM) | solubility at 24 h ([2]; Water, equilibrium pH 7.78, 24 hours at room temperature, n = 2): 0.3 µg/mL (≈ 0.714 µM)
SMILES: CCC(CC)c1cc(C)nc2c(-c3sc(N4CCOCC4)nc3Cl)c(C)nn12 [Compound 1, 4-(4-chloro-5-(2,5-dimethyl-7-(pentan-3-yl)pyrazolo[1,5-a]pyrimidin-3-yl)thiazol-2-yl)morpholine]

Reference: patent publication US20200255436A1, “CORTICOTROPIN RELEASING FACTOR RECEPTOR ANTAGONISTS” (Spruce Biosciences, Inc., priority 2019, published 2020)
